Experimental data reported in publication PMC8185074, “Anchor extension: a structure-guided approach to design cyclic peptides targeting enzyme active sites” (Nature Communications, 2021).

Experiments:
Type in all cases: biochemical
HDAC3 = target: T1, HDAC3 (Homo sapiens, UniProt O15379); experiment: HDAC3 inhibition, full IC50 measurement (Reaction Biology; fluorogenic p53 peptide RHKK(Ac)AMC)
T1 construct: purchased Reaction Biology Corporation (assay run by the CRO)
In short: (§1)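 Deacetylation of 50 μM RHKK(Ac)AMC is measured after 1 h at 30 °C in pH 8.0 Tris buffer (1% DMSO, 1 mg/ml BSA). Developer ends the reaction; the post-plateau 360/460 nm signal is fitted to IC50, averaging replicate measurements.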

HDAC8 = target: T2, HDAC8 (Homo sapiens, UniProt Q9BY41); experiment: HDAC8 inhibition, full IC50 measurement (Reaction Biology; fluorogenic p53 peptide RHKK(Ac)AMC)
T2 construct: purchased Reaction Biology Corporation (assay run by the CRO)
T2 sequence (Q9BY41 1-377): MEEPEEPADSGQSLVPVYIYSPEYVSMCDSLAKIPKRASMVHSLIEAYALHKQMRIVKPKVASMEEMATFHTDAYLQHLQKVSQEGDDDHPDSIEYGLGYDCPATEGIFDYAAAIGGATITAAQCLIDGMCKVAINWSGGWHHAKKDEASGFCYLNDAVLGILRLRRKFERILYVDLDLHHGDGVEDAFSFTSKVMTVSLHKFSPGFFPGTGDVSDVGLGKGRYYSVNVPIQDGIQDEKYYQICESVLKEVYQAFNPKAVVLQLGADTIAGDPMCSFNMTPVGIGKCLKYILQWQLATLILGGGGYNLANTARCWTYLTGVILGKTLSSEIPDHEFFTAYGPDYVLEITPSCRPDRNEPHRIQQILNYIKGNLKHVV
In short: as §1

HDAC6 = target: T3, HDAC6 (Homo sapiens, UniProt Q9UBN7); experiment: HDAC6 inhibition, full IC50 measurement (Reaction Biology; fluorogenic p53 peptide RHKK(Ac)AMC)
T3 construct: purchased Reaction Biology Corporation (assay run by the CRO)
T3 sequence (Q9UBN7 1-1215): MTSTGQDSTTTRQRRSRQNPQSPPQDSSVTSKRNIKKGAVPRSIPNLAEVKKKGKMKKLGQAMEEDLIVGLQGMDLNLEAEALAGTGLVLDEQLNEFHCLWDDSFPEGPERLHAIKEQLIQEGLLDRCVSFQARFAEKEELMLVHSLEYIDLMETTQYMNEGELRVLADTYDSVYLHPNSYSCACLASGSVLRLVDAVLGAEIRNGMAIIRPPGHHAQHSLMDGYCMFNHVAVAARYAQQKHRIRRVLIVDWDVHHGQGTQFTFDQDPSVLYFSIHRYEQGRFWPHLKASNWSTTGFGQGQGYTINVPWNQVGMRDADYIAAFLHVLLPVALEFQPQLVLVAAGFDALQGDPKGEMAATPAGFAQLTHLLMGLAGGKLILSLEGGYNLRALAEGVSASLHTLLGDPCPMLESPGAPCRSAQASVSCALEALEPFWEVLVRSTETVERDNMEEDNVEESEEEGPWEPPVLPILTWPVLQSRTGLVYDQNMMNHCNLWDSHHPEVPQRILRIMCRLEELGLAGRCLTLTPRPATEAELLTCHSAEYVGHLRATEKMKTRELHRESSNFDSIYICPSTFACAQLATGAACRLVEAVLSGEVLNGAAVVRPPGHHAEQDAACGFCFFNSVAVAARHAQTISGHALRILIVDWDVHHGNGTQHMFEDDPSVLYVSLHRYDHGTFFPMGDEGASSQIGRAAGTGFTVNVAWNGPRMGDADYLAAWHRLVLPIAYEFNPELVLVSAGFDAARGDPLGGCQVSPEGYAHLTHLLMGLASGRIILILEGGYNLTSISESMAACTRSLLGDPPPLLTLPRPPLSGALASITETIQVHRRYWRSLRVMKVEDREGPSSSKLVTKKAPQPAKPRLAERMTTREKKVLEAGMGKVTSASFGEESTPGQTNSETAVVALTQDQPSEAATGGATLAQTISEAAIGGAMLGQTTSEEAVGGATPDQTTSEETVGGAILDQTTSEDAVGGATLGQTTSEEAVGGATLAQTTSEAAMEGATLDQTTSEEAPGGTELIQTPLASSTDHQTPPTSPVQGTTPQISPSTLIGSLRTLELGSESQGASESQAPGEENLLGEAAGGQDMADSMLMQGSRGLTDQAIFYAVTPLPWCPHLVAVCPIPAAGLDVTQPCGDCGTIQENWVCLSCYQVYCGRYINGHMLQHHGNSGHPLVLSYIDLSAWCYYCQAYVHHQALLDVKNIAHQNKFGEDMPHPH
In short: as §1

T1 sequence (O15379 whole entry): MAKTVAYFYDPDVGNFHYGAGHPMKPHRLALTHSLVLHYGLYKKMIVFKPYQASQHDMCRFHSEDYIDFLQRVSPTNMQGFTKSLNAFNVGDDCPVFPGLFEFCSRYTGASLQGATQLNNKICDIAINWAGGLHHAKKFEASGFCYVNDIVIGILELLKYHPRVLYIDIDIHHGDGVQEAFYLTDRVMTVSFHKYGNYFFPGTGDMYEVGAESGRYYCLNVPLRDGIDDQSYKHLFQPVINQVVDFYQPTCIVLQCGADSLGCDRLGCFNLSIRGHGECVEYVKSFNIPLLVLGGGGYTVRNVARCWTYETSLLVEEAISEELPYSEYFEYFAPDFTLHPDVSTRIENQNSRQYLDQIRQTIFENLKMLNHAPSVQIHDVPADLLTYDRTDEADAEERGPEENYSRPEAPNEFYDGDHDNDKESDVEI
T1 sequence (Q9Y618 395-489 partner limits assumed): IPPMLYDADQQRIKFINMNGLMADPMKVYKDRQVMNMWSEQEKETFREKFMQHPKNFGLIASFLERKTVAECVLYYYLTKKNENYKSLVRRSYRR

Which results are given for `N[C@@H](CCCCCS)C(=O)O` [SHA, 2S-2-amino-7-sulfanylheptanoic acid]?
HDAC3 inhibition potency in words (HDAC3): low micro-molar to high nano-molar affinities; HDAC3 raw activity signal (HDAC3; Conc. 1.00E-05 M): 305013; HDAC3 raw activity signal (HDAC3; Conc. 1.11E-06 M): 772070; HDAC3 raw activity signal (HDAC3; Conc. 1.23E-07 M): 916440; HDAC3 raw activity signal (HDAC3; Conc. 1.37E-08 M): 1023518; HDAC3 raw activity signal (HDAC3; Conc. 1.52E-09 M): 969054; HDAC3 raw activity signal (HDAC3; Conc. 3.33E-06 M): 650146; HDAC3 raw activity signal (HDAC3; Conc. 3.70E-07 M): 835487; HDAC3 raw activity signal (HDAC3; Conc. 4.12E-08 M): 896484; HDAC3 raw activity signal (HDAC3; Conc. 4.57E-09 M): 995503; HDAC3 raw activity signal (HDAC3; Conc. 5.08E-10 M): 959845; HDAC8 inhibition potency in words (HDAC8): low micro-molar to high nano-molar affinities; HDAC8 raw activity signal (HDAC8; Conc. 1.00E-05 M): 485885; HDAC8 raw activity signal (HDAC8; Conc. 1.11E-06 M): 715893; HDAC8 raw activity signal (HDAC8; Conc. 1.23E-07 M): 664184; HDAC8 raw activity signal (HDAC8; Conc. 1.37E-08 M): 813063; HDAC8 raw activity signal (HDAC8; Conc. 1.52E-09 M): 850527; HDAC8 raw activity signal (HDAC8; Conc. 3.33E-06 M): 572309; HDAC8 raw activity signal (HDAC8; Conc. 3.70E-07 M): 755715; HDAC8 raw activity signal (HDAC8; Conc. 4.12E-08 M): 855669; HDAC8 raw activity signal (HDAC8; Conc. 4.57E-09 M): 817878; HDAC8 raw activity signal (HDAC8; Conc. 5.08E-10 M): 743919; HDAC6 inhibition potency in words (HDAC6): low micro-molar to high nano-molar affinities; HDAC6 raw activity signal (HDAC6; Conc. 1.00E-05 M): 33328; HDAC6 raw activity signal (HDAC6; Conc. 1.11E-06 M): 230710; HDAC6 raw activity signal (HDAC6; Conc. 1.23E-07 M): 527992; HDAC6 raw activity signal (HDAC6; Conc. 1.37E-08 M): 589576; HDAC6 raw activity signal (HDAC6; Conc. 1.52E-09 M): 605039; HDAC6 raw activity signal (HDAC6; Conc. 3.33E-06 M): 100537; HDAC6 raw activity signal (HDAC6; Conc. 3.70E-07 M): 381738; HDAC6 raw activity signal (HDAC6; Conc. 4.12E-08 M): 574853; HDAC6 raw activity signal (HDAC6; Conc. 4.57E-09 M): 596934; HDAC6 raw activity signal (HDAC6; Conc. 5.08E-10 M): 614098; IC50 (HDAC6; read-out: HDAC6 IC50): 600 nM
